Data from paper PMC5218480 (PLoS ONE, 2017).

Tested on: MV-4-11 cells
Assay: Gene expression microarray analysis (Affymetrix PrimeView) and GSEA
Type: cell-based, human
Design: RFU PODN (11730768_x_at) / Fold change /veh PODN (11730768_x_at) / RFU LINC00158 (11744669_a_at) / Fold change /veh LINC00158 (11744669_a_at) / RFU DUSP10 (11751237_a_at) / Fold change /veh DUSP10 (11751237_a_at) / RFU ID3 (11757404_x_at) / Fold change /veh ID3 (11757404_x_at) / RFU PLEKHG5 (11737974_s_at) / Fold change /veh PLEKHG5 (11737974_s_at) / RFU LRRC4B (11730491_at) / Fold change /veh LRRC4B (11730491_at) / RFU GIMAP4 (11747438_a_at) / Fold change /veh GIMAP4 (11747438_a_at) / RFU KRT8 (11758183_x_at) / Fold change /veh KRT8 (11758183_x_at) / RFU CNN1 (11734310_a_at) / Fold change /veh CNN1 (11734310_a_at) / RFU VPS37D (11726825_at) / Fold change /veh VPS37D (11726825_at) / RFU C10orf10 (11716522_x_at) / Fold change /veh C10orf10 (11716522_x_at) / RFU KIR2DL2 /// KIR2DL4 /// KIR2DL5A /// KIR2DL5B /// KIR2DS1 /// KIR2DS2 /// KIR2DS3 /// KIR2DS4 /// KIR3DL3 /// KIR3DL3 /// KIR3DS1 (11738374_at) / Fold change /veh KIR2DL2 /// KIR2DL4 /// KIR2DL5A /// KIR2DL5B /// KIR2DS1 /// KIR2DS2 /// KIR2DS3 /// KIR2DS4 /// KIR3DL3 /// KIR3DL3 /// KIR3DS1 (11738374_at) / RFU C1QL1 (11718748_at) / Fold change /veh C1QL1 (11718748_at) / RFU TMPRSS4 (11747572_a_at) / Fold change /veh TMPRSS4 (11747572_a_at) / RFU HAMP (11756126_x_at) / Fold change /veh HAMP (11756126_x_at) / RFU RNFT2 (11725882_a_at) / Fold change /veh RNFT2 (11725882_a_at) / RFU NR4A2 (11747474_a_at) / Fold change /veh NR4A2 (11747474_a_at) / RFU ABCC12 (11746883_a_at) / Fold change /veh ABCC12 (11746883_a_at) / RFU TMEM136 (11760407_x_at) / Fold change /veh TMEM136 (11760407_x_at) / RFU CLDN22 /// WWC2 (11732394_at) / Fold change /veh CLDN22 /// WWC2 (11732394_at) / RFU HLA-DPB1 (11760878_x_at) / Fold change /veh HLA-DPB1 (11760878_x_at) / RFU SPINT1 (11716480_a_at) / Fold change /veh SPINT1 (11716480_a_at) / RFU GAP43 (11754022_s_at) / Fold change /veh GAP43 (11754022_s_at) / RFU A4GNT (11735810_at) / Fold change /veh A4GNT (11735810_at) / RFU PRB3 (11715151_x_at) / Fold change /veh PRB3 (11715151_x_at) / RFU TUBB4B (11761932_at) / Fold change /veh TUBB4B (11761932_at) / RFU CAPN14 (11732068_a_at) / Fold change /veh CAPN14 (11732068_a_at) / RFU TMCC2 (11721928_a_at) / Fold change /veh TMCC2 (11721928_a_at) / RFU IRGQ (11745062_a_at) / Fold change /veh IRGQ (11745062_a_at) / RFU FAM174B (11720279_a_at) / Fold change /veh FAM174B (11720279_a_at) / RFU TMPRSS4 (11748680_a_at) / Fold change /veh TMPRSS4 (11748680_a_at) / RFU FAM212B (11763350_a_at) / Fold change /veh FAM212B (11763350_a_at) / RFU PLEKHG5 (11743358_a_at) / Fold change /veh PLEKHG5 (11743358_a_at) / RFU ZSCAN30 (11745921_a_at) / Fold change /veh ZSCAN30 (11745921_a_at) / RFU CMKLR1 (11741424_a_at) / Fold change /veh CMKLR1 (11741424_a_at) / RFU LOC101060620 /// MAPK8IP1 (11723275_at) / Fold change /veh LOC101060620 /// MAPK8IP1 (11723275_at) / RFU SPTSSB (11747773_x_at) / Fold change /veh SPTSSB (11747773_x_at) / RFU PRSS12 (11739890_at) / Fold change /veh PRSS12 (11739890_at) / RFU BIN1 (11741810_x_at) / Fold change /veh BIN1 (11741810_x_at) / RFU WNT11 (11732464_a_at) / Fold change /veh WNT11 (11732464_a_at) / RFU C10orf10 (11716521_a_at) / Fold change /veh C10orf10 (11716521_a_at) / RFU C5orf56 (11738089_at) / Fold change /veh C5orf56 (11738089_at) / RFU CYB561 (11721691_x_at) / Fold change /veh CYB561 (11721691_x_at) / RFU ANKRD19P (11752326_a_at) / Fold change /veh ANKRD19P (11752326_a_at) / RFU OR2T12 /// OR2T33 /// OR2T8 (11738714_s_at) / Fold change /veh OR2T12 /// OR2T33 /// OR2T8 (11738714_s_at) / RFU VCAN (11748164_a_at) / Fold change /veh VCAN (11748164_a_at) / RFU JSRP1 (11732532_at) / Fold change /veh JSRP1 (11732532_at) / RFU KRTAP10-11 (11738290_x_at) / Fold change /veh KRTAP10-11 (11738290_x_at) / RFU MYO3A (11730013_a_at) / Fold change /veh MYO3A (11730013_a_at) / RFU EBF3 (11725865_a_at) / Fold change /veh EBF3 (11725865_a_at) / RFU CAMK2N1 (11719241_x_at) / Fold change /veh CAMK2N1 (11719241_x_at) / RFU C5orf56 (11738088_a_at) / Fold change /veh C5orf56 (11738088_a_at) / RFU OLFML3 (11715873_a_at) / Fold change /veh OLFML3 (11715873_a_at) / RFU LOC100653217 /// NTM (11731650_a_at) / Fold change /veh LOC100653217 /// NTM (11731650_a_at) / RFU MAPK11 (11762145_a_at) / Fold change /veh MAPK11 (11762145_a_at) / RFU FIZ1 (11724087_x_at) / Fold change /veh FIZ1 (11724087_x_at) / RFU OASL (11726364_x_at) / Fold change /veh OASL (11726364_x_at) / RFU SOX15 (11748057_x_at) / Fold change /veh SOX15 (11748057_x_at) / RFU CD79A (11719716_a_at) / Fold change /veh CD79A (11719716_a_at) / RFU HIST1H1D (11736915_at) / Fold change /veh HIST1H1D (11736915_at) / RFU CASKIN2 (11723855_a_at) / Fold change /veh CASKIN2 (11723855_a_at) / RFU LOC730098 (11760151_x_at) / Fold change /veh LOC730098 (11760151_x_at) / RFU OR4N2 (11742367_at) / Fold change /veh OR4N2 (11742367_at) / RFU PRRT2 (11749266_a_at) / Fold change /veh PRRT2 (11749266_a_at) / RFU SNX32 (11753110_a_at) / Fold change /veh SNX32 (11753110_a_at) / RFU CDHR5 (11726645_a_at) / Fold change /veh CDHR5 (11726645_a_at) / RFU RCAN1 (11760418_a_at) / Fold change /veh RCAN1 (11760418_a_at) / RFU FAM167A (11723789_a_at) / Fold change /veh FAM167A (11723789_a_at) / RFU FAM26E (11764081_at) / Fold change /veh FAM26E (11764081_at) / RFU ISYNA1 (11749810_s_at) / Fold change /veh ISYNA1 (11749810_s_at) / RFU ACY1 (11761880_at) / Fold change /veh ACY1 (11761880_at) / RFU 11764098_at / Fold change /veh 11764098_at / RFU SAMD14 (11745864_x_at) / Fold change /veh SAMD14 (11745864_x_at) / RFU NPB (11741838_a_at) / Fold change /veh NPB (11741838_a_at) / RFU TMPRSS6 (11731388_a_at) / Fold change /veh TMPRSS6 (11731388_a_at) / RFU KRTAP10-2 (11738614_at) / Fold change /veh KRTAP10-2 (11738614_at) / RFU ARHGAP8 /// PRR5-ARHGAP8 (11727945_x_at) / Fold change /veh ARHGAP8 /// PRR5-ARHGAP8 (11727945_x_at) / RFU KRTAP5-7 /// NADSYN1 (11734609_at) / Fold change /veh KRTAP5-7 /// NADSYN1 (11734609_at) / RFU RASL12 (11751679_a_at) / Fold change /veh RASL12 (11751679_a_at) / RFU CDKN2B (11736163_a_at) / Fold change /veh CDKN2B (11736163_a_at) / RFU PRF1 (11729649_at) / Fold change /veh PRF1 (11729649_at) / RFU, ZNF638 /// ZNF638-IT1 / Fold change vs veh, ZNF638 /// ZNF638-IT1 / RFU, PANK3 / Fold change vs veh, PANK3 / RFU, SH3YL1 / Fold change vs veh, SH3YL1 / RFU, ZEB2 / Fold change vs veh, ZEB2 / RFU, NRIP1 / Fold change vs veh, NRIP1 / RFU, PTTG1IP / Fold change vs veh, PTTG1IP / RFU, CAPN2 / Fold change vs veh, CAPN2 / RFU, MED14 / Fold change vs veh, MED14 / RFU, SNORA58 / Fold change vs veh, SNORA58 / RFU, C1orf63 / Fold change vs veh, C1orf63 / RFU, LRRFIP1 / Fold change vs veh, LRRFIP1 / RFU, NDUFAF7 / Fold change vs veh, NDUFAF7 / RFU, SLC12A2 / Fold change vs veh, SLC12A2 / RFU, IBTK / Fold change vs veh, IBTK / RFU, ESF1 / Fold change vs veh, ESF1 / Fold change vs veh, TMEM50B / RFU, TAOK1 / Fold change vs veh, TAOK1 / RFU, ACBD3 / Fold change vs veh, ACBD3 / RFU, TMA16 / Fold change vs veh, TMA16 / RFU, RWDD3 / Fold change vs veh, RWDD3 / RFU, BCAT1 / Fold change vs veh, BCAT1 / RFU, EDEM3 / Fold change vs veh, EDEM3 / RFU, TMEM33 / Fold change vs veh, TMEM33 / RFU, WDR75 / Fold change vs veh, WDR75 / RFU, AHCTF1 / Fold change vs veh, AHCTF1 / RFU, TFRC / Fold change vs veh, TFRC / RFU, ZDHHC17 / Fold change vs veh, ZDHHC17 / RFU, NOM1 / Fold change vs veh, NOM1 / RFU, ARL8B / Fold change vs veh, ARL8B / RFU, ZBTB11 / Fold change vs veh, ZBTB11 / RFU, TAMM41 / Fold change vs veh, TAMM41 / RFU, KIAA1704 /// LOC100996395 / Fold change vs veh, KIAA1704 /// LOC100996395 / RFU, ING1 / Fold change vs veh, ING1 / RFU, TRMT61B / Fold change vs veh, TRMT61B / RFU, FUBP3 / Fold change vs veh, FUBP3 / RFU, TP53 / Fold change vs veh, TP53 / RFU, TNKS2 / Fold change vs veh, TNKS2 / RFU, ZFP14 / Fold change vs veh, ZFP14 / RFU, ACTR2 / Fold change vs veh, ACTR2 / RFU, PPP3R1 / Fold change vs veh, PPP3R1 / RFU, PIK3R1 / Fold change vs veh, PIK3R1 / RFU, HNRNPA1 / Fold change vs veh, HNRNPA1 / RFU, RNF170 / Fold change vs veh, RNF170 / RFU, ZNF28 / Fold change vs veh, ZNF28 / RFU, RNGTT / Fold change vs veh, RNGTT / RFU, OGT / Fold change vs veh, OGT / RFU, BRD1 / Fold change vs veh, BRD1 / RFU, MARS / Fold change vs veh, MARS / RFU, ZNF655 / Fold change vs veh, ZNF655 / RFU, FAHD1 / Fold change vs veh, FAHD1 / RFU, BDP1 / Fold change vs veh, BDP1 / RFU, LRRCC1 / Fold change vs veh, LRRCC1 / RFU, ARID1A / Fold change vs veh, ARID1A / RFU, ZNF146 / Fold change vs veh, ZNF146 / RFU, ZNF330 / Fold change vs veh, ZNF330 / RFU, GPN3 / Fold change vs veh, GPN3 / RFU, C9orf123 / Fold change vs veh, C9orf123 / RFU, N4BP2L2 / Fold change vs veh, N4BP2L2 / RFU, ARFIP1 / Fold change vs veh, ARFIP1 / RFU, FAM179B / Fold change vs veh, FAM179B / RFU, BCL10 / Fold change vs veh, BCL10 / RFU, UHRF1BP1L / Fold change vs veh, UHRF1BP1L / RFU, BET1 / Fold change vs veh, BET1 / RFU, CNOT2 / Fold change vs veh, CNOT2 / RFU, ZNF268 / Fold change vs veh, ZNF268 / Fold change vs veh, ZNF507 / RFU, DGCR2 / Fold change vs veh, DGCR2 / RFU, WDSUB1 / Fold change vs veh, WDSUB1 / Fold change vs veh, HSP90B1 /// MIR3652 / RFU, ADSS / Fold change vs veh, ADSS / RFU, GK / Fold change vs veh, GK / RFU, ZNF148 / Fold change vs veh, ZNF148 / RFU, TAF9 / Fold change vs veh, TAF9 / RFU, SLC1A5 / Fold change vs veh, SLC1A5 / RFU, SLMO2 / Fold change vs veh, SLMO2 / RFU, ABCC4 / Fold change vs veh, ABCC4 / RFU, LOC101060439 /// RAP1B / Fold change vs veh, LOC101060439 /// RAP1B / RFU, RFX7 / Fold change vs veh, RFX7 / RFU, GTPBP10 / Fold change vs veh, GTPBP10 / RFU, CNEP1R1 / Fold change vs veh, CNEP1R1 / RFU, BIVM-ERCC5 /// ERCC5 / Fold change vs veh, BIVM-ERCC5 /// ERCC5 / RFU, ILF3 / Fold change vs veh, ILF3 / RFU 11762660_at / Fold change /veh 11762660_at / RFU VCAN (11757783_s_at) / Fold change /veh VCAN (11757783_s_at) / RFU DDX43 (11728927_at) / Fold change /veh DDX43 (11728927_at) / RFU KRT8 (11758188_x_at) / Fold change /veh KRT8 (11758188_x_at) / RFU NKD1 (11759106_at) / Fold change /veh NKD1 (11759106_at) / RFU SRD5A1 (11742802_a_at) / Fold change /veh SRD5A1 (11742802_a_at) / RFU TPSAB1 /// TPSB2 (11721975_s_at) / Fold change /veh TPSAB1 /// TPSB2 (11721975_s_at) / RFU GSTM3 (11746129_a_at) / Fold change /veh GSTM3 (11746129_a_at) / RFU IL23R (11737362_x_at) / Fold change /veh IL23R (11737362_x_at) / RFU TMEM51 (11727254_a_at) / Fold change /veh TMEM51 (11727254_a_at) / RFU PIWIL2 (11732686_x_at) / Fold change /veh PIWIL2 (11732686_x_at) / RFU ORM1 (11744905_x_at) / Fold change /veh ORM1 (11744905_x_at) / RFU CCDC152 (11743942_at) / Fold change /veh CCDC152 (11743942_at) / RFU ECM1 (11717891_a_at) / Fold change /veh ECM1 (11717891_a_at) / RFU IL23R (11748794_a_at) / Fold change /veh IL23R (11748794_a_at) / RFU TNFAIP8L3 (11732012_x_at) / Fold change /veh TNFAIP8L3 (11732012_x_at) / RFU MBOAT4 (11741988_at) / Fold change /veh MBOAT4 (11741988_at) / RFU 11764193_at / Fold change /veh 11764193_at / RFU TMEM53 (11763286_at) / Fold change /veh TMEM53 (11763286_at) / RFU MAGEB2 (11727129_at) / Fold change /veh MAGEB2 (11727129_at) / RFU TMEM200A (11744735_a_at) / Fold change /veh TMEM200A (11744735_a_at) / RFU CCDC152 (11751479_a_at) / Fold change /veh CCDC152 (11751479_a_at) / RFU FAM211A (11726209_a_at) / Fold change /veh FAM211A (11726209_a_at) / RFU RGS16 (11746705_a_at) / Fold change /veh RGS16 (11746705_a_at) / RFU VCAN (11755009_s_at) / Fold change /veh VCAN (11755009_s_at) / RFU RHOB (11743442_s_at) / Fold change /veh RHOB (11743442_s_at) / RFU RGS16 (11720943_a_at) / Fold change /veh RGS16 (11720943_a_at) / RFU RGS16 (11720944_at) / Fold change /veh RGS16 (11720944_at) / RFU, VPS4B / Fold change vs veh, VPS4B / RFU, CREB1 / Fold change vs veh, CREB1 / RFU, DNAJC13 / Fold change vs veh, DNAJC13 / RFU, GNAQ / Fold change vs veh, GNAQ / RFU, CDK5R1 / Fold change vs veh, CDK5R1 / RFU, ZRANB3 / Fold change vs veh, ZRANB3 / RFU, CUL4A / Fold change vs veh, CUL4A / RFU, CCNY / Fold change vs veh, CCNY / RFU, UFL1 / Fold change vs veh, UFL1 / RFU, COG3 / Fold change vs veh, COG3 / RFU, DIAPH2 / Fold change vs veh, DIAPH2 / RFU, SKA2 / Fold change vs veh, SKA2 / RFU, AFF3 / Fold change vs veh, AFF3 / RFU, LMF1 / Fold change vs veh, LMF1 / RFU, IPO11 / Fold change vs veh, IPO11 / RFU, DFFB / Fold change vs veh, DFFB / RFU, FOXP1 / Fold change vs veh, FOXP1 / RFU, CARD8 / Fold change vs veh, CARD8 / RFU, STRN3 / Fold change vs veh, STRN3 / RFU, ADK / Fold change vs veh, ADK / RFU, RASSF2 / Fold change vs veh, RASSF2 / RFU, WIPF1 / Fold change vs veh, WIPF1 / RFU, LARP1B / Fold change vs veh, LARP1B / RFU, RASA1 / Fold change vs veh, RASA1 / RFU, RB1 / Fold change vs veh, RB1 / RFU, PPFIA1 / Fold change vs veh, PPFIA1 / RFU, MAT2A / Fold change vs veh, MAT2A / RFU, CCT5 / Fold change vs veh, CCT5 / RFU, WDR92 / Fold change vs veh, WDR92 / RFU, CUX1 / Fold change vs veh, CUX1 / RFU, TTC7A / Fold change vs veh, TTC7A / RFU, TMEM135 / Fold change vs veh, TMEM135 / RFU, DEPTOR / Fold change vs veh, DEPTOR / RFU, CPM / Fold change vs veh, CPM / RFU, DNAJB6 / Fold change vs veh, DNAJB6 / RFU, CACNA2D3 / Fold change vs veh, CACNA2D3 / RFU, DTX4 / Fold change vs veh, DTX4 / RFU, TFCP2 / Fold change vs veh, TFCP2 / RFU, GMCL1 /// GMCL1P1 / Fold change vs veh, GMCL1 /// GMCL1P1 / RFU, AEBP2 / Fold change vs veh, AEBP2 / RFU, SNHG1 /// SNORD22 /// SNORD25 /// SNORD26 /// SNORD27 /// SNORD28 /// SNORD29 /// SNORD31 / Fold change vs veh, SNHG1 /// SNORD22 /// SNORD25 /// SNORD26 /// SNORD27 /// SNORD28 /// SNORD29 /// SNORD31 / Fold change (Aza/veh), C12orf56 (ProbeSet 11735607_a_at) / Fold change (ACY-1035/veh), C12orf56 (ProbeSet 11735607_a_at) / Fold change (Aza/veh), FGFR1OP (ProbeSet 11751329_s_at) / Fold change (ACY-1035/veh), FGFR1OP (ProbeSet 11751329_s_at) / Fold change (Aza/veh), VPS36 (ProbeSet 11739960_a_at) / Fold change (ACY-1035/veh), VPS36 (ProbeSet 11739960_a_at) / RFU SYPL1 (11715823_x_at) / Fold change /veh SYPL1 (11715823_x_at) / RFU IGFBP7 (11715501_s_at) / Fold change /veh IGFBP7 (11715501_s_at) / RFU REEP3 (11722064_at) / Fold change /veh REEP3 (11722064_at) / RFU IGLL1 (11728026_x_at) / Fold change /veh IGLL1 (11728026_x_at): dose or concentration left out as unconfirmed
Conditions: ProbeSet 11754362_a_at; LIST D

Nc1ncn([C@@H]2O[C@H](CO)[C@@H](O)[C@H]2O)c(=O)n1 [azacitidine]
RFU, TTC7A: 124.13 RFU
